The results in this text go back to patent publication US9908868B2, “Isoindolinone compounds as GPR119 modulators for the treatment of diabetes, obesity, dyslipidemia and related disorders” (SANOFI, priority 2014, dated 2018).

A value given as a limit tells only on which side of the number the result lay.

The assay has as its target T1, human GPR119 (Homo sapiens, UniProt Q8TDV5).
T1 construct: expressed in transfected cells
T1 sequence (Q8TDV5 1-335): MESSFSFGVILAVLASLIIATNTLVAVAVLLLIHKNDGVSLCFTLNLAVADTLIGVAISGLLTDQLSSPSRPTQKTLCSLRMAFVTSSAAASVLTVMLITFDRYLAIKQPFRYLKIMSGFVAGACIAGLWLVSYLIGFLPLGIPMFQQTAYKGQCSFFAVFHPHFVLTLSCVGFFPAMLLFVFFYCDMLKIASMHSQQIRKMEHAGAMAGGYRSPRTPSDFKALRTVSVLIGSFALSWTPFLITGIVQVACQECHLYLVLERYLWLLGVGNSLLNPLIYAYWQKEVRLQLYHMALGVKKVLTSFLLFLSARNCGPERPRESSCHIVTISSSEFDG
Nature of the assay: Functional cellular assay measuring GPR119-mediated cAMP release (HTRF) in HEK-293 cells stably expressing recombinant human GPR119. Format: cell-based. The conditions noted are these: cAMP response, cell line expressing human GPR119, 30 minutes at room temperature. The method, then: Functional Cellular Assays Measuring GPR119-Mediated cAMP Release
Compounds of the invention, which are agonists of GPR119, were characterized by functional assays measuring the cAMP response of HEK-293 cell lines stably expressing recombinant GPR119 from man, mouse or rat, or by using a hamster cell line HIT-T15 expressing GPR119 endogenously. The cAMP content was determined using a kit based on homogenous time-resolved fluorescence (HTRF) from Cisbio Corp. (cat. no. 62AM4PEC). For preparation, cells were split into T175 culture flasks and grown to near confluency in medium (DMEM/10% FCS for HEK-293 cells, and F-12K medium/10% horse serum/2.5% FCS for HIT-T15 cells, respectively). Medium was then removed and cells washed with PBS lacking calcium and magnesium ions, followed by proteinase treatment with accutase (Sigma-Aldrich, cat. no. A6964). Detached cells were washed and resuspended in assay buffer (1×HBSS; 20 mM HEPES, 0.1% BSA, 2 mM IBMX) and cellular density determined. They were then diluted to 400000 cells/mL and 25 μL-aliquots dispensed to the wells of 96-well plates. For measurement, 25 μL of test compound in assay buffer was added and incubated for 30 minutes at room temperature. After addition of HTRF reagents diluted in lysis buffer, the plates were incubated for 1 hour, followed by measuring the fluorescence ratio at 665 vs. 620 nm. Potency of the agonists was quantified by determining the concentrations that caused 50% of the maximal response/activation (EC50). See Table 7 for exemplary data obtained using the cell line expressing human GPR119.
Turning to `CN(C)C(=O)CN1Cc2ccc(N3CC[C@H](Oc4ccc(OCC5CC5)nc4)C3=O)cc2C1=O` [Example 1-25, 2-[6-[(3S)-3-[[6-(cyclopropylmethoxy)-3-pyridyl]oxy]-2-oxo-pyrrolidin-1-yl]-1-oxo-isoindolin-2-yl]-N,N-dimethyl-acetamide], the EC50 worked out at 441 nM. As for `CN(C)C(=O)Cn1c(=O)c2cc(N3CC[C@H](Oc4ccc(OCC5CC5)nc4)C3=O)ccc2n1C` [Example 1-26, 2-[5-[(3S)-3-[[6-(cyclopropylmethoxy)-3-pyridyl]oxy]-2-oxo-pyrrolidin-1-yl]-1-methyl-3-oxo-indazol-2-yl]-N,N-dimethyl-acetamide], the EC50 worked out at 14200 nM. As to `CN(C)C(=O)Cn1c(=O)c2cc(N3CC[C@@H](Oc4ccc(OCC5CC5)nc4)C3=O)ccc2n1C` [Example 1-27, 2-[5-[(3R)-3-[[6-(cyclopropylmethoxy)-3-pyridyl]oxy]-2-oxo-pyrrolidin-1-yl]-1-methyl-3-oxo-indazol-2-yl]-N,N-dimethyl-acetamide], the EC50 turned out to be 488 nM. Take `CN(C)C(=O)CN1Cc2ncc(N3CC[C@@H](Oc4ccc(Oc5ccc(F)cc5)nc4)C3=O)cc2C1=O` [Example 1-28, 2-[3-[(3R)-3-[[6-(4-fluorophenoxy)-3-pyridyl]oxy]-2-oxo-pyrrolidin-1-yl]-5-oxo-7H-pyrrolo[3,4-b]pyridin-6-yl]-N,N-dimethyl-acetamide]: the EC50 came to 976 nM.

As for `CCOC(=O)CN1Cc2ccc(N3CC[C@@H](Oc4ccc(OCC5CC5)nc4)C3=O)cc2C1=O` [Example 1-29, ethyl 2-[6-[(3R)-3-[[6-(cyclopropylmethoxy)-3-pyridyl]oxy]-2-oxo-pyrrolidin-1-yl]-1-oxo-isoindolin-2-yl]acetate], the EC50 came to 15 nM. As for `CCOc1ccc(O[C@@H]2CCN(c3cc(F)c4c(c3)C(=O)N(C(C)(C)C)C4)C2=O)cn1` [Example 1-30, 2-tert-butyl-6-[(3R)-3-[(6-ethoxy-3-pyridyl)oxy]-2-oxo-pyrrolidin-1-yl]-4-fluoro-isoindolin-1-one], the EC50 is above 100000 nM. Next, `CCOc1ccc(O[C@@H]2CCN(c3cc(F)c4c(c3)C(=O)N(CC(=O)OC)C4)C2=O)cn1` [Example 1-31, methyl 2-[6-[(3R)-3-[(6-ethoxy-3-pyridyl)oxy]-2-oxo-pyrrolidin-1-yl]-4-fluoro-1-oxo-isoindolin-2-yl]acetate]: 65 nM. Take `COC(=O)CN1Cc2ccc(N3CC[C@@H](Oc4ccc(OCCC5CC5)nc4)C3=O)cc2C1=O` [Example 1-32, methyl 2-[6-[(3R)-3-[[6-(2-cyclopropylethoxy)-3-pyridyl]oxy]-2-oxo-pyrrolidin-1-yl]-1-oxo-isoindolin-2-yl]acetate]: the EC50 was 63 nM. As to `CC(C)(C)N1Cc2c(F)cc(N3CC[C@@H](Oc4ccc(OCC5CC5)nc4)C3=O)cc2C1=O` [Example 1-33, 2-tert-butyl-6-[(3R)-3-[[6-(cyclopropylmethoxy)-3-pyridyl]oxy]-2-oxo-pyrrolidin-1-yl]-4-fluoro-isoindolin-1-one], the EC50 is 8510 nM. In the case of `COC(=O)CN1Cc2c(F)cc(N3CC[C@@H](Oc4ccc(OCCC5CC5)nc4)C3=O)cc2C1=O` [Example 1-35, methyl 2-[6-[(3R)-3-[[6-(2-cyclopropylethoxy)-3-pyridyl]oxy]-2-oxo-pyrrolidin-1-yl]-4-fluoro-1-oxo-isoindolin-2-yl]acetate], the EC50 worked out at 19 nM.

Turning to `O=C1c2cc(N3CC[C@@H](Oc4ccc(OCCC5CC5)nc4)C3=O)cc(F)c2CN1CCO` [Example 1-36, 6-[(3R)-3-[[6-(2-cyclopropylethoxy)-3-pyridyl]oxy]-2-oxo-pyrrolidin-1-yl]-4-fluoro-2-(2-hydroxyethyl)isoindolin-1-one], the EC50 was 142 nM. Next, `CN(C)C(=O)CN1Cc2ccc(N3CC[C@@H](Oc4ccc(OC5CC5)nc4)C3=O)cc2C1=O` [Example 1-37, 2-[6-[(3R)-3-[[6-(cyclopropoxy)-3-pyridyl]oxy]-2-oxo-pyrrolidin-1-yl]-1-oxo-isoindolin-2-yl]-N,N-dimethyl-acetamide]: 1040 nM.
